Patent US11596656B2, “Stem cell-produced microvesicles for treating tendon pathologies” (ALBERT EINSTEIN COLLEGE OF MEDICINE, priority 2016, dated 2023)
Counter-ions that a name gives are not always drawn.

How the values were obtained:
[1] = test system: MSCs grown on silk scaffolds; experiment: Rho/Rock pathway and stress fiber disruption in MSCs grown on silk scaffolds; format: cell-based; conditions: treatment for 24 h
Text: FIG. 6A-6C. Disruption of Rho/Rock Pathway signaling and stress fiber formation are required for tendon lineage determination. (6A) Immunocytochemistry of P-actin in MSCs grown either with no treatment or treated with Latrunculin A, Y-27632 and Blebbistatin for 7 days (blue=DAPI, green=P-actin). *P<0.05 for all treatments. (6B) mRNA expression and protein expression of Sex and mRNA expression of (6C) Coll al and Nfatc4 Nst in MSCs grown on silk scaffolds following treatment with Latrunculin A (LatA), Y-27632 (Y) and Blebbistatin (Bleb) for 24 h. Data represent three independent experiments per assay.
4. Disruption of stress fiber formation by blocking Rho/Rock Pathway signaling abolished silk scaffold induced MSCs tendon lineage differentiation. To determine the role of stress fibers in mediating silk fiber-induced MSC tenogenic differentiation, the impact of cell signaling on the regulation of stress fiber formation was examined.
Compared to untreated cells, cells that were exposed to the above treatment conditions lost their elongated phenotype (FIG. 6A). […] Therefore, the expression of Nfatc4 and Collal following treatment with Latrunculin A, Y-27632, and blebbistatin was also examined.

[2] = test system: MSCs grown on silk scaffolds; experiment: effect of cytochalasin D on silk-fiber induced MSC teno-differentiation; format: cell-based
Text: FIG. 5A-5I. Cytochalasin D disrupted actin cytoskeletal arrangement in cells attached to scaffold fibers and abolished the elongated cell body [(5A) vs (5B)] and associated nuclear shape change [(5C) vs (5D)]. […] (5G) Relative mRNA and (5H) western blot of Sex and Tnmd expression with (i) relative mRNA expression of the housekeeping genes Hrptl and Pgkl as an internal control. Data represent at least three independent experiments per assay. *P<0.05 compared to MSCs seeded on a scaffold without cytochalasin D. Scale bar=25 μm.
3. Actin polymerization is required for scaffold induced stem cell elongation and expression of tenogenesis markers Sex and Tnmd. To determine the role of cytoskeletal organization in the differentiation of MSCs into tenocytes when MSCs are grown on silk, the effect of cytochalasin D, which inhibits actin polymerization by capping the barbed ends of F-actin polymers was examined on silk-fiber induced MSC teno-differentiation. Differences in cell shape and cell nuclei were quantified by measuring the lengths of the cells that were growing in parallel with the fibers and were compared to the maximal widths of the cells, which were measured perpendicular to the fibers. […] Significant differences were found when quantifying the cytoplasmic (P<0.05) and nuclear (P<0.05) ratios (Fig. SE).
To determine whether actin polymerization in elongated cells is required for tenogenic differentiation, the effect of cytochalasin D was examined on tenogenic marker gene and protein expression in MSCs that were grown on silk scaffolds for 7 days. […] To determine whether the loss of Sex and Tnmd expression was due to specific effects produced by cytochalasin D on actin polymerization and cell morphology, rather than due to general toxicity related to gene expression, the expression levels of two housekeeping genes, Hypoxanthine-guanine phosphoribosyltransferase
1 (Hprtl) and phosphoglycerate kinase 1 (Pgkl), were analyzed.

[3] = MSCs grown on silk scaffolds for 7 days, compared to untreated controls
[4] = check for general toxicity related to gene expression
[5] = compared to untreated MSCs, P<0.05

C/C1=C/C(=O)O[C@@H]2C[C@@H](CC[C@H](C)/C=C\C=C\CC1)O[C@@](O)([C@@H]1CSC(=O)N1)C2 [Latrunculin A]
expression level of Coll al [1]: significantly decreased
expression level of Nfatc4 [1]: significantly decreased
expression level of SCX proteins [1]: significantly decreased
expression level of Sex mRNAs [1]: significantly decreased

C[C@@H](N)[C@H]1CC[C@H](C(=O)Nc2ccncc2)CC1 [Y-27632, Y-27632 dihydrochloride]
expression level of Coll al [1]: significantly decreased
expression level of Nfatc4 [1]: significantly decreased
expression level of SCX proteins [1]: significantly decreased
expression level of Sex mRNAs [1]: significantly decreased

Cc1ccc2c(c1)C(=O)C1(O)CCN(c3ccccc3)C1=N2 (stereo not shown) [blebbistatin]
expression level of Coll al [1]: significantly decreased
expression level of Nfatc4 [1]: significantly decreased
expression level of SCX proteins [1]: significantly decreased
expression level of Sex mRNAs [1]: significantly decreased

C=C1[C@@H](C)[C@H]2[C@H](Cc3ccccc3)NC(=O)[C@]23[C@H](OC(C)=O)/C=C/[C@@](C)(O)C(=O)[C@@H](C)C/C=C/[C@H]3[C@@H]1O [cytochalasin D]
Sex expression (immunocytochemistry, real-time PCR, western blot) [2, 3]: loss
Tnmd expression (immunocytochemistry, real-time PCR, western blot) [2, 3]: loss
elongated phenotype of the cells [2, 3]: abolished
expression level of housekeeping gene Hprtl [2, 4]: remained unchanged
expression level of housekeeping gene Pgkl [2, 4]: remained unchanged
length-to-width ratio of cytoplasm [2, 5]: smaller
length-to-width ratio of nuclei [2, 5]: smaller
